Assay results published in publication PMC11802874, “The hypolipidemic effect of MI-883, the combined CAR agonist/ PXR antagonist, in diet-induced hypercholesterolemia model” (Nature Communications, 2025).
“And” between values parts separate entries of the source, which are not always exact repeats. Equal values may be shown once.

Assays:
[1] = Stability in mouse plasma; type: in vitro ADME; conditions: read-out: Stability in mouse plasma, t1/2
Source text: Plasma protein binding, and stability in human and mouse plasma have been tested as previously described.

[2] = molecular target: T1, human PXR (Homo sapiens, UniProt O75469); assay: PXR-dependent CYP3A4 reporter gene assay in H-P cells; type: cell-based; set-up: expressed in transfected cells; host or cells: H-P cells (HepG2 stably transfected with pcDhPXR)
T1 sequence (O75469 1-434): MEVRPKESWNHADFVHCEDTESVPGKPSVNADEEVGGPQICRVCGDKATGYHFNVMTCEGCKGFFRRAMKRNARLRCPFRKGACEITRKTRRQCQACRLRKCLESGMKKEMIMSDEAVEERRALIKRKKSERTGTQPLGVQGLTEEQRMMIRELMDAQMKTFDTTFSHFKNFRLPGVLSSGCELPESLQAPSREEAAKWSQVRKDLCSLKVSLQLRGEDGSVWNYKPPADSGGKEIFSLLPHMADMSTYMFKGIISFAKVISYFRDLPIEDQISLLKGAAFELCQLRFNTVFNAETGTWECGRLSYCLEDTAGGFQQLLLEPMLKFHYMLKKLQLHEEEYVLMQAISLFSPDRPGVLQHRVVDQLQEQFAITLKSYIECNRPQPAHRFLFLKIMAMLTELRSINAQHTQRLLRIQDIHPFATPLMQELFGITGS
Procedure: Luciferase reporter gene assays in PXR expressing H-P cells and mammalian two-hybrid reporter assays have been performed as described before[55],[57].
We also analyzed PXR-dependent CYP3A4 reporter gene assays in H-P cells, which represent HepG2 cells stably over-expressing human PXR, due to transfection of PXR expression plasmid pcDhPXR^5. […] 0.01 µg Metridia luciferase expression plasmid pMetLuc2control per well was included.

[3] = molecular target: PPARα (Homo sapiens, UniProt Q07869); assay: Luciferase reporter gene assay PPARα, HepG2
PPARα, sequence (Q07869 239-466 limits assumed): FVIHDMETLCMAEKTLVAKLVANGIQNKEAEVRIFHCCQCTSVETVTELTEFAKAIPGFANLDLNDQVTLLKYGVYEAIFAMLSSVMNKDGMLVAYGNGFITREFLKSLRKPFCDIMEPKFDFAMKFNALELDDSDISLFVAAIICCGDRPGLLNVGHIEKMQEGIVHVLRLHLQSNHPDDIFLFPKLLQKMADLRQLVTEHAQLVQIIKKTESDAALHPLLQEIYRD
Source text: The luciferase reporter gene assays for FXR, LXRα, LXRβ, THα, GRα, PPARα, PPARδ/β, PPARγ, AhR, VD, ERα, ERβ and mouse Car are described in our recent paper[19]
(§1) Gal4-LBD constructs of tested nuclear receptors have been used together with pGL4.31[luc2P/GAL4UAS/Hygro] luciferase reporter construct and pRL-TK Renilla expression vector (both from Promega, Hercules, USA) in HepG2 cells transfected with Lipofectamine 2000 or 3000 reagents. For GRα and FXR receptors, full-length expression vectors have been used with pGRE-luc or pFXRE-luc luciferase constructs. For the aryl hydrocarbon receptor (AhR), p1A1-luc construct was used with only pRL-TK vector for transfection normalization. A dual reporter assay (Promega, Hercules, USA) was used to analyze both firefly and Renilla luciferase activities.
(§2) Gal4-LBD constructs of tested nuclear receptors have been used together with pGL5-luc luciferase reporter construct and pRL-TK Renilla expression vector in HepG2 cells transfected with Lipofectamine 2000 or 3000 reagents. For GRα and FXR receptors, full-length expression vectors have been used with pGRE-luc or pFXRE-luc luciferase constructs. For the aryl hydrocarbon receptor (AhR), p1A1-luc construct was used with only pRL-TK vector for transfection normalization. […] Bars represent means±S.D. (n=3).

[4] = molecular target: T2, PXR LBD (Homo sapiens, UniProt O75469); assay: TR-FRET PXR LBD competitive binding assay (LanthaScreen); conditions: recombinant PXR LBD
T2 construct: purchased ThermoFisher Scientific
Procedure: The LanthaScreen TR-FRET PXR Competitive Binding Assay (ThermoFisher Scientific, USA) was performed to evaluate interaction with PXR LBD as we described. The assay measures the ability of an evaluated compound to replace the fluorescent PXR ligand from the receptor. The fluorescence was measured using a Synergy 2 Multi-Mode Microplate Reader (BioTek Winooski, VT, USA) (n = 3).

[5] = tested on: PXR-responsive CYP3A4(pER6)-luc construct; assay: CYP3A4(pER6)-luc luciferase reporter assay in HepG2 cells
[6] = Metabolic stability in human liver S9 fraction
Procedure: Shimadzu HPLC system including vacuum degasser, gradient pumps, reverse phase HPLC column, column oven, and autosampler with an API 4000 QTRAP mass spectrometer (Applied Biosystems/MDS Sciex (AB Sciex) with Turbo V ion source and TurboIonspray interface were used. The reference compound midazolam, which is metabolized both by phase I and phase II enzymes, was used. The elimination constant (kel), half-life (t1/2), and intrinsic clearance (Clint) were determined[19] (Table S1).
Supplementary Figure 1. […] Test compounds (1 μM, final DMSO concentration 1%) were incubated at 37 °C with shaking at 100 rpm. Four time points over 120 minutes have been analyzed. The reactions were stopped by adding 420 μL of acetonitrile-water mixture (90:10). Supernatants were analyzed by the HPLC system coupled with a tandem mass spectrometer. The percentage (in % of initial concertation) of the test compounds remaining after incubation in plasma and their half-lives (t1/2) were calculated. […] The stability of the compound was tested in human liver S9 fraction. Cofactors were used such as UDPGA (for glucuronidation), PAPS (for sulfation), and reduced glutathione (for conjugation of GSH). Compounds were tested in triplicate with or without NADPH. Propantheline and midazolam were used as unstable control compounds in the experiments. Data represent the means±S.D. from at least three independent samples.

[7] = molecular target: hERG potassium channel (Homo sapiens, UniProt Q12809); assay: Thallium flux FLIPR-based hERG assay; type: cell-based
hERG potassium channel, sequence (Q12809 whole entry): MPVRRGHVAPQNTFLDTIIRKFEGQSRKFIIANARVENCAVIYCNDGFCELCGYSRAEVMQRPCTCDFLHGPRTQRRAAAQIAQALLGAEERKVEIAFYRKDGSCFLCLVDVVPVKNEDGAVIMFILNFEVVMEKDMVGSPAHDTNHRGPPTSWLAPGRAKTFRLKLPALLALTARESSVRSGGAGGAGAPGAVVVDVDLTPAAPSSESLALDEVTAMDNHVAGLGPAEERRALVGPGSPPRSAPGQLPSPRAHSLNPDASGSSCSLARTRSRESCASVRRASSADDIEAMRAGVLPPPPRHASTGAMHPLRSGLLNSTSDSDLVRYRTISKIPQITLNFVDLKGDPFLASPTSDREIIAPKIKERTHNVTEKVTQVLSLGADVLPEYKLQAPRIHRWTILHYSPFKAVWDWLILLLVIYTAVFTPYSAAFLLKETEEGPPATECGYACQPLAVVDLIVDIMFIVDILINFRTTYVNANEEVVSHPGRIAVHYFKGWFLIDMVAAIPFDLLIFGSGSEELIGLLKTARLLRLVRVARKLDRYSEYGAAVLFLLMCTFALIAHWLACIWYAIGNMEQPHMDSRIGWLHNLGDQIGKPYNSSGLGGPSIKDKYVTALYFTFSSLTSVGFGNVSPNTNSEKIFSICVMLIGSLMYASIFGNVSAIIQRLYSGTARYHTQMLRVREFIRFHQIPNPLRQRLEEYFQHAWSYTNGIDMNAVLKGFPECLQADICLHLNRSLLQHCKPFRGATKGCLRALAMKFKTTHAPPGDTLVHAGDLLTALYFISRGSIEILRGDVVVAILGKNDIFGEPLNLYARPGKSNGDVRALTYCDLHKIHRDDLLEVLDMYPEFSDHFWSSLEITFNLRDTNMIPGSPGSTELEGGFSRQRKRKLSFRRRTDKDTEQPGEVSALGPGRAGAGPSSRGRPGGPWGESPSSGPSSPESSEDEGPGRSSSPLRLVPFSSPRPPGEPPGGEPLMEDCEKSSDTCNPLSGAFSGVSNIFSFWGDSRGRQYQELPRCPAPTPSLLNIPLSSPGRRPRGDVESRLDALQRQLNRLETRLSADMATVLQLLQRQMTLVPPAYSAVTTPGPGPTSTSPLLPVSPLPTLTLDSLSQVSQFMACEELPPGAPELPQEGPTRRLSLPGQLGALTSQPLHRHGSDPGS
Source text: Thallium flux FLIPR-based assay for the identification of hERG potassium channel inhibition

[8] = Chemical stability (shelf, DMSO stock) and solubility in solvents; type: physicochemical
Source text: 1. Biological half-life was investigated. But is MI-883 stable on the shelf? […]
Our medicinal chemistry team analyzed the MI-883 sample that had been stored on the lab bench at […]
compared to the freshly prepared sample (see Figure R1).
In addition, the compound is stable for at least two years in dimethyl sulfoxide (DMSO) as we confirm using published protocols 1,2(see data in Table R1).
Table 1: LC/MS data for MI-883 stability in DMSO solution
Study protocol: Stability of MI-883 stock solution in DMSO after two years at -20°C A 10 mM solution of MI-883 was prepared in DMSO and divided into multiple aliquots in 2 mL cryovials.
The samples were stored at -20°C for two years in a standard laboratory freezer. Mass spectrometric analysis was conducted using LC/MS (Sciex QTRAP 7500). Stability was determined based on three independently prepared 1 µM solutions from stored stock.
DMSO stock solution at -20°C over two years. However, for critical pharmaceutical use, additional studies at different temperatures and under varied conditions (e.g., light exposure, humidity) may be necessary to fully assess long-term stability. […]
We used several computational prediction tools to determine water […]
μg/mL (0.9 μM) and 0.2 μg/mL (0.4 μM). Using QikProp tool (Schrödinger software package), the […]
According to the ADMET Predictor software package […]
predictions align with our observations and confirm the poor water solubility of MI-883, although we […]
The compound is well soluble in methanol and can dissolve in ethanol up to a concentration of 30 mM. […]

[9] = molecular target: GRα (Homo sapiens, UniProt P04150); assay: Luciferase reporter gene assay GRα, HepG2; conditions: ligand: Dexamethasone 100 nM
GRα, sequence (P04150 whole entry): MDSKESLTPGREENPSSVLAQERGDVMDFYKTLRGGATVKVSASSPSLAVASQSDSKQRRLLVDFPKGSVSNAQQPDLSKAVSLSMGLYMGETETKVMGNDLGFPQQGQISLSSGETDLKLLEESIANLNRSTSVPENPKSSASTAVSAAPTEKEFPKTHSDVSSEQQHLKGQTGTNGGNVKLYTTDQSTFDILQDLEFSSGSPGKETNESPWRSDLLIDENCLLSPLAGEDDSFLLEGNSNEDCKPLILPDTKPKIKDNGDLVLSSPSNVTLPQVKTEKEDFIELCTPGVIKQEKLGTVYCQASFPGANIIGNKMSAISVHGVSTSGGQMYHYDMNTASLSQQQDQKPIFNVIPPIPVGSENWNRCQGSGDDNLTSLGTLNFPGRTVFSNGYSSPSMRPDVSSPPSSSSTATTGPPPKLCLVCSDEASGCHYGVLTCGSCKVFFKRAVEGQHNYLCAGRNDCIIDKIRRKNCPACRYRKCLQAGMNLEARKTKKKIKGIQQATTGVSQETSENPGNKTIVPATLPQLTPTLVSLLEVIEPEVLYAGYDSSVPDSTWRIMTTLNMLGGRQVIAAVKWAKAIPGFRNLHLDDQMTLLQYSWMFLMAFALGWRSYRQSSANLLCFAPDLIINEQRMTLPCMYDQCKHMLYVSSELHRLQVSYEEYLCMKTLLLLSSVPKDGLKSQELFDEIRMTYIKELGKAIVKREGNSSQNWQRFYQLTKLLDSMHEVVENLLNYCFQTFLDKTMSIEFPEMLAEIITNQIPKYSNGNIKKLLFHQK
Source text: as §1, §2

NC(=O)c1cc(Cn2cc(-c3c(-c4ccc(Cl)cc4)nc4cc(F)ccn34)nn2)ccc1Cl [MI-883, 2-chloro-5-((4-(2-(4-chlorophenyl)-7-fluoroimidazo[1,2-a]pyridin-3-yl)-1H-1,2,3-triazol-1-yl)methyl)benzamide]
half-life [1]: > 2 h | PXR-dependent CYP3A4 reporter activity in H-P cells, replicates ([2]; 5 MI883 (µM not given), DMSO ~1): 0.825 and 0.683 and 0.491 | PXR-dependent CYP3A4 reporter activity in H-P cells, replicates ([2]; 30 MI883): 0.49 and 0.788 and 0.597 | PXR-dependent CYP3A4 reporter activity in H-P cells, replicates ([2]; RIF + 5 MI883): 10.8 and 10.1 and 9.53 | PXR-dependent CYP3A4 reporter activity in H-P cells, replicates ([2]; RIF + 10 MI883): 5.74 and 6.79 and 5.06 | PXR-dependent CYP3A4 reporter activity in H-P cells, replicates ([2]; RIF + 30 MI883): 1.18 and 2.43 and 2.32 | PXR-dependent CYP3A4 reporter activity in H-P cells, replicates ([2]; single agent: RIF (10 µM), 10 MI883): 0.606 and 0.813 and 0.535 | NRs assays: PPARa (relative to ctrl, replicates) [3]: 0.75 and 0.92 and 1.14 | IC50 [4]: 100 ± 20 nM | pER6-luc luciferase gene reporter assay (Fig1 m), replicates ([5]; Rif 1μM + MI-883 30μM): 0.18 and 0.17 and 0.185 | pER6-luc luciferase gene reporter assay (Fig1 m), replicates ([5]; SR12813 1μM + MI-883 30μM): 0.21 and 0.22 and 0.19 | pER6-luc luciferase gene reporter assay (Fig1 m), replicates ([5]; single agent 10μM): 0.17 and 0.18 | pER6-luc luciferase gene reporter assay (Fig1 m), replicates ([5]; single agent 30μM): 0.21 and 0.19 | half-life at 2 µM ([6]; human, liver S9 fraction): 2.85 h | microsomal CLint at 2 µM ([6]; human, liver S9 fraction): 2 µL/min/mg | Stability in S9 fraction (human liver), % remaining ([6]; time 0 (min), 2 μM): 100 | Stability in S9 fraction (human liver), % remaining ([6]; time 20): 100 | Stability in S9 fraction (human liver), % remaining ([6]; time 40): 92 | Stability in S9 fraction (human liver), % remaining ([6]; time 60): 96 | Stability in S9 fraction (human liver), % remaining ([6]; time 120): 84 | hERG IC50 [7]: could not be defined | hERG assay, inhibition of hERG potassium channel activity [7]: no significant inhibition up to 100 µM | solubility in methanol [8]: well soluble | LC/MS concentration of 1 µM solution from DMSO stock ([8]; 2 year at -20°C in DMSO): 1.007 µM | decomposition on the lab bench at room temperature ([8]; 6 months, HPLC/MS): no significant decomposition | water solubility ([8]; not experimentally determined): low water solubility | LC/MS concentration of 1 µM solution from DMSO stock ([8]; time 0): 1.012 µM | NRs assays: GRa (relative to ctrl, replicates) [9]: 0.97 (2×) and 1.03
